Measurements taken from patent publication US20190192455A1, “USE OF CELIPROLOL FOR TREATING KYPHOSCOLIOTIC EHLERS-DANLOS SYNDROME” (Assistance Publique-Hospitaux de Paris (AP-HP), priority 2017, published 2019).

What was measured:
vascular EDS patients = vascular EDS patients taking celiprolol, compared to placebo (Ong et al., 2010); cited from earlier work
[1] = test system: kyphoscoliotic EDS patient; test: Case report: celiprolol in prevention of further arterial events in a kyphoscoliotic EDS patient; type: in vivo, human
Text: All ruptures occurred following minor trauma. The right eye ruptured twice, the left eye once only. […] Their family history was remarkable by the death of their only and younger sibling, by spontaneous abdominal aortic rupture. Their phenotype was similar to their […] sibling's.
Physical examination evidenced major cutaneous fragility (bruising) and dystrophic scars. […] furthermore presented a severe kyphoscoliosis and diffuse joint hypermobility (Beighton score 8/9) with instability, particularly of the left shoulder (recurrent dislocations). Further osteoarticular signs were pes planus and minor pectus excavatum. […] The dissecting aneurysm of the celiac trunk also remained stable and a complete regression of the extension of the dissection to the SMA was noted. Two years later, the patient presented with similar pain in the left calf. Doppler ultrasound documented a left tibial anterior dissecting aneurysm. This second clinical event also resolved medically. Celiprolol was initiated and up-titrated to the optimally tolerated dose (400 mg/day) in prevention of further arterial events.

CCN(CC)C(=O)Nc1ccc(OCC(O)CNC(C)(C)C)c(C(C)=O)c1 (stereo not shown) [Celiprolol, N′-(3-Acetyl-4-(3-((1,1-dimethylethyl)amino)-2-hydroxypropoxy)phenyl)-N, N-diethylurea]
incidence of arterial rupture or dissection (vascular EDS patients): decreased incidence of arterial rupture or dissection
clinical course (arterial events) under celiprolol ([1]; one patient with recurrent arterial dissections, up-titrated to 400 mg/day, 3 years follow-up): remained clinically silent
systematic arterial monitoring for silent arterial defects ([1]; same patient, 400 mg/day, 3 years follow-up): did not evidence further silent arterial defects
novel arterial manifestation under celiprolol treatment ([1]; same patient, four year follow-up): without novel arterial manifestation
